What was measured:
Assay type in all cases: functional
Mus musculus [1] = assay: Inhibition of SERT-mediated serotonin-reuptake assessed as 5-hydroxytryptophan induced mouse head twitch at 6.47 mM/kg, ip after 20 mins; design: scale not given: the % may be the effect or the level left
Mus musculus [2] = assay: Inhibition of NET-mediated norepinephrine-reuptake assessed as yohimbine induced mortality in mouse at 3.24 mM/kg, ip after 24 hrs; design: scale not given: the % may be the effect or the level left
Mus musculus [3] = assay: Inhibition of SERT-mediated serotonin-reuptake assessed as 5-hydroxytryptophan induced mouse head twitch at 3.24 mM/kg, ip after 20 mins; design: scale not given: the % may be the effect or the level left
Mus musculus [4] = assay: Inhibition of NET-mediated norepinephrine-reuptake assessed as yohimbine induced mortality in intraperitoneally dosed mouse after 24 hrs; settings: ip
Mus musculus [5] = assay: Inhibition of NET-mediated norepinephrine-reuptake assessed as yohimbine induced mortality in mouse at 9.71 mM/kg, ip after 24 hrs; design: scale not given: the % may be the effect or the level left
Mus musculus [6] = assay: Inhibition of SERT-mediated serotonin-reuptake assessed as 5-hydroxytryptophan induced mouse head twitch at 1.62 mM/kg, ip after 20 mins; design: scale not given: the % may be the effect or the level left
Mus musculus [7] = species: Mus musculus; assay: Selectivity ratio of ED50 for 5-HT reuptake in mouse to ED50 for norepinephrine reuptake in mouse
Mus musculus [8] = assay: Inhibition of SERT-mediated serotonin-reuptake assessed as 5-hydroxytryptophan induced intraperitoneally dosed mouse head twitch after 20 mins; settings: ip
Mus musculus [9] = assay: Inhibition of NET-mediated norepinephrine-reuptake assessed as yohimbine induced mortality in mouse at 12.94 mM/kg, ip after 24 hrs; design: scale not given: the % may be the effect or the level left
Mus musculus [10] = assay: Inhibition of NET-mediated norepinephrine-reuptake assessed as yohimbine induced mortality in mouse at 25.89 mM/kg, ip after 24 hrs; design: scale not given: the % may be the effect or the level left
Mus musculus [11] = assay: Inhibition of SERT-mediated serotonin-reuptake assessed as 5-hydroxytryptophan induced mouse head twitch at 12.94 mM/kg, ip after 20 mins; design: scale not given: the % may be the effect or the level left
Mus musculus [12] = assay: Inhibition of NET-mediated norepinephrine-reuptake assessed as yohimbine induced mortality in mouse at 6.47 mM/kg, ip after 24 hrs; design: scale not given: the % may be the effect or the level left
Mus musculus [13] = assay: Inhibition of NET-mediated norepinephrine-reuptake assessed as yohimbine induced mortality in mouse at 19.42 mM/kg, ip after 24 hrs; design: scale not given: the % may be the effect or the level left
Mus musculus [14] = assay: Inhibition of SERT-mediated serotonin-reuptake assessed as 5-hydroxytryptophan induced mouse head twitch at 4.86 mM/kg, ip after 20 mins; design: scale not given: the % may be the effect or the level left

## CN(C)CCCN1c2ccccc2CCc2ccc(Cl)cc21 [CLOMIPRAMINE]
Mus musculus [1]
  Activity: 83.3%
Mus musculus [2]
  Activity: 16.67%
Mus musculus [3]
  Activity: 50%
Mus musculus [4]
  ED50: 5780 µmol/kg
Mus musculus [5]
  Activity: 66.67%
Mus musculus [6]
  Activity: 50%
Mus musculus [7]
  Ratio ED50: 0.35
Mus musculus [8]
  ED50: 2 µmol/kg

## CN1C2CCC1CC(Oc1ccc(C(F)(F)F)cc1)(c1ccccc1)C2 (stereo not drawn)
Mus musculus [9]
  Activity: 66.67%
Mus musculus [1]
  Activity: 66.67%
Mus musculus [3]
  Activity: 50%
Mus musculus [4]
  ED50: 11300 µmol/kg
Mus musculus [10]
  Activity: 100%
Mus musculus [7]
  Ratio ED50: 0.29
Mus musculus [11]
  Activity: 83.33%
Mus musculus [12]
  Activity: 0%
Mus musculus [8]
  ED50: 3.3 µmol/kg
Mus musculus [13]
  Activity: 66.67%

## CN1C2CCC1CC(Oc1ccc([N+](=O)[O-])cc1)(c1ccccc1)C2 (stereo not drawn)
Mus musculus [9]
  Activity: 50%
Mus musculus [1]
  Activity: Toxic
Mus musculus [2]
  Activity: 0%
Mus musculus [3]
  Activity: 50%
Mus musculus [4]
  ED50: 10300 µmol/kg
Mus musculus [10]
  Activity: Toxic
Mus musculus [6]
  Activity: 33.33%
Mus musculus [7]
  Ratio ED50: 0.29
Mus musculus [12]
  Activity: 50%
Mus musculus [8]
  ED50: 2.94 µmol/kg
Mus musculus [14]
  Activity: 66.67%

## CN1C2CCC1CC(Oc1cccc(C(F)(F)F)c1)(c1ccccc1)C2 (stereo not drawn)
Mus musculus [9]
  Activity: 33.33%
Mus musculus [1]
  Activity: 50%
Mus musculus [2]
  Activity: 0%
Mus musculus [3]
  Activity: 33.33%
Mus musculus [4]
  ED50: 53100 µmol/kg
Mus musculus [10]
  Activity: Toxic
Mus musculus [7]
  Ratio ED50: 0.1
Mus musculus [11]
  Activity: 83.33%
Mus musculus [12]
  Activity: 16.67%
Mus musculus [8]
  ED50: 5.46 µmol/kg
Mus musculus [13]
  Activity: Toxic

## CNCCC(Oc1ccc(C(F)(F)F)cc1)c1ccccc1 (stereo not drawn) [FLUOXETINE]
Mus musculus [9]
  Activity: 0%
Mus musculus [1]
  Activity: 50%
Mus musculus [2]
  Activity: 0%
Mus musculus [3]
  Activity: 16.67%
Mus musculus [4]
  ED50: > 12900 µmol/kg
Mus musculus [7]
  Ratio ED50: <0.39
Mus musculus [11]
  Activity: 100%
Mus musculus [12]
  Activity: 0%
Mus musculus [8]
  ED50: 5.09 µmol/kg

## CN(C)CCCC1(c2ccc(F)cc2)OCc2cc(C#N)ccc21 (stereo not drawn) [CITALOPRAM]
Mus musculus [9]
  Activity: 16.67%
Mus musculus [1]
  Activity: 100%
Mus musculus [3]
  Activity: 83.33%
Mus musculus [4]
  ED50: 13700 µmol/kg
Mus musculus [6]
  Activity: 50%
Mus musculus [7]
  Ratio ED50: 0.12
Mus musculus [12]
  Activity: 0%
Mus musculus [8]
  ED50: 1.58 µmol/kg

## CN1C2CCC1CC(Oc1ccc(C#N)cc1)(c1ccc(F)cc1)C2 (stereo not drawn)
Mus musculus [9]
  Activity: 100%
Mus musculus [1]
  Activity: Toxic
Mus musculus [2]
  Activity: 16.67%
Mus musculus [3]
  Activity: 50%
Mus musculus [4]
  ED50: 5020 µmol/kg
Mus musculus [6]
  Activity: 33.33%
Mus musculus [7]
  Ratio ED50: 0.59
Mus musculus [12]
  Activity: 66.67%
Mus musculus [8]
  ED50: 2.94 µmol/kg
Mus musculus [14]
  Activity: 66.67%

## CN1C2CCC1CC(Oc1ccc(Br)cc1)(c1ccccc1)C2 (stereo not drawn)
Mus musculus [9]
  Activity: 50%
Mus musculus [1]
  Activity: 50%
Mus musculus [3]
  Activity: 33.33%
Mus musculus [4]
  ED50: 11400 µmol/kg
Mus musculus [10]
  Activity: 100%
Mus musculus [7]
  Ratio ED50: 0.56
Mus musculus [11]
  Activity: 66.67%
Mus musculus [12]
  Activity: 16.67%

## CN1C2CCC1CC(Oc1ccc(C#N)cc1)(c1ccccc1)C2 (stereo not drawn)
Mus musculus [9]
  Activity: 83.33%
Mus musculus [1]
  Activity: 66.67%
Mus musculus [2]
  Activity: 50%
Mus musculus [3]
  Activity: 33.33%
Mus musculus [4]
  ED50: 4080 µmol/kg
Mus musculus [6]
  Activity: 16.67%
Mus musculus [7]
  Ratio ED50: 1.08
Mus musculus [12]
  Activity: 50%
Mus musculus [8]
  ED50: 4.44 µmol/kg

## CN1C2CCC1CC(Oc1ccc(Cl)cc1)(c1ccccc1)C2 (stereo not drawn)
Mus musculus [9]
  Activity: 33.33%
Mus musculus [1]
  Activity: 66.67%
Mus musculus [3]
  Activity: 33.33%
Mus musculus [4]
  ED50: 16100 µmol/kg
Mus musculus [10]
  Activity: 66.67%
Mus musculus [7]
  Ratio ED50: 0.29
Mus musculus [11]
  Activity: 83.33%
Mus musculus [12]
  Activity: 33.33%
Mus musculus [8]
  ED50: 4.72 µmol/kg

— ChEMBL document CHEMBL1140502, “Synthesis of some tropane derivatives of anticipated activity on the reuptake of norepinephrine and/or serotonin” (2007)
